# Assays:
# Experiment in all cases: microbe, parasite or virus in culture
# Botrytis cinerea Pers = conditions: read-out: Inhibition Ratio (%) / B. cinerea
# [1] = system: Fusarium oxysporum Schl. F.sp. vasinfectum (Atk.) Snyd. & Hans.; conditions: read-out: Inhibition Ratio (%) / Fusarium oxysporum Schl. F.sp. vasinfectum (Atk.) Snyd. & Hans.
# [2] = system: Phytophthora capsici P. CapasiciLeonian; conditions: read-out: Inhibition Ratio (%) / P. CapasiciLeonian
# Pyricularia oryzae Cav. = conditions: read-out: Inhibition Ratio (%) / Pyricularia oryzae Cav.
# [3] = system: Sclerotinia sclerotiorum (Lib.) de Bary; conditions: read-out: Inhibition Ratio (%) / S. sclerotiorum
SMILES,inhibition at 50 µg/mL (Botrytis cinerea Pers) [%],inhibition at 50 µg/mL [1] [%],inhibition at 50 µg/mL [2] [%],inhibition at 50 µg/mL (Pyricularia oryzae Cav.) [%],inhibition at 50 µg/mL [3] [%]
"CO[C@@H]1[C@H]2OC(C)(C)O[C@H]2O[C@@H]1Cn1cc(-c2ccc(Cl)cc2)nn1 [1-f, Furan glucosyl-1,2,3-triazole (1-f)]",71,89,81.2,82.4,85.1
"CO[C@H]1[C@@H](Cn2cc(-c3ccccc3)nn2)OC(O)[C@@H]1O (stereo partly drawn) [3-a, Furan glucosyl-1,2,3-triazole (3-a)]",33.3,58.7,40.1,61.2,30.3
"CO[C@H]1[C@@H](Cn2cc(-c3cccc(C)c3)nn2)OC(O)[C@@H]1O (stereo partly drawn) [3-b, Furan glucosyl-1,2,3-triazole (3-b)]",15.3,34.1,35.6,35.4,28.4
"COc1ccc(-c2cn(C[C@H]3OC(O)[C@H](O)[C@H]3OC)nn2)cc1 (stereo partly drawn) [3-c, Furan glucosyl-1,2,3-triazole (3-c)]",10.4,29.3,38.9,30.1,31.5
"CO[C@H]1[C@@H](Cn2cc(-c3ccc(F)cc3)nn2)OC(O)[C@@H]1O (stereo partly drawn) [3-d, Furan glucosyl-1,2,3-triazole (3-d)]",19.1,40.2,50.2,47.8,38.4
"CO[C@H]1[C@@H](Cn2cc(-c3ccc([N+](=O)[O-])cc3)nn2)OC(O)[C@@H]1O (stereo partly drawn) [3-e, Furan glucosyl-1,2,3-triazole (3-e)]",17.1,25.6,44.7,23.1,39.6
"CO[C@H]1[C@@H](Cn2cc(-c3ccc(Cl)cc3)nn2)OC(O)[C@@H]1O (stereo partly drawn) [3-f, Furan glucosyl-1,2,3-triazole (3-f)]",20.5,57.6,46.8,50.7,25.3
"CO[C@H]1[C@@H](Cn2cc(C(C)O)nn2)OC(O)[C@@H]1O (stereo partly drawn) [3-g, Furan glucosyl-1,2,3-triazole (3-g)]",11.5,23.4,23.1,21.5,13.7
"OC1O[C@H](Cn2cc(-c3ccccc3)nn2)[C@H](OCc2ccccc2)[C@H]1O (stereo partly drawn) [4-a, Furan glucosyl-1,2,3-triazole (4-a)]",19.5,35.4,21.2,37.8,26.4
"Cc1cccc(-c2cn(C[C@H]3OC(O)[C@H](O)[C@H]3OCc3ccccc3)nn2)c1 (stereo partly drawn) [4-b, Furan glucosyl-1,2,3-triazole (4-b)]",10.9,27.1,29.6,27.8,29.9
"OC1O[C@H](Cn2cc(-c3ccc(F)cc3)nn2)[C@H](OCc2ccccc2)[C@H]1O (stereo partly drawn) [4-d, Furan glucosyl-1,2,3-triazole (4-d)]",20.3,37.8,35.4,35.6,34.7
"OC1O[C@H](Cn2cc(-c3ccc(Cl)cc3)nn2)[C@H](OCc2ccccc2)[C@H]1O (stereo partly drawn) [4-f, Furan glucosyl-1,2,3-triazole (4-f)]",22.2,43.1,38.7,40.2,31.7
"CC(O)c1cn(C[C@H]2OC(O)[C@H](O)[C@H]2OCc2ccccc2)nn1 (stereo partly drawn) [4-g, Furan glucosyl-1,2,3-triazole (4-g)]",12.1,20.9,24.5,21.3,13.5
"CO[C@H]1C(Cn2cc(-c3ccccc3)nn2)OC(OC(C)=O)[C@@H]1OC(C)=O (stereo partly drawn) [5-a, Furan glucosyl-1,2,3-triazole (5-a)]",36.1,61.3,42.3,62.7,57.6
"COc1ccc(-c2cn(C[C@H]3OC(OC(C)=O)[C@H](OC(C)=O)[C@H]3OC)nn2)cc1 (stereo partly drawn) [5-c, Furan glucosyl-1,2,3-triazole (5-c)]",19.2,30,47.2,40.8,43.1
"CO[C@H]1[C@@H](Cn2cc(-c3ccc(F)cc3)nn2)OC(OC(C)=O)[C@@H]1OC(C)=O (stereo partly drawn) [5-d, Furan glucosyl-1,2,3-triazole (5-d)]",23.2,70.9,65.2,69.2,67.6
"CO[C@H]1[C@@H](Cn2cc(-c3ccc([N+](=O)[O-])cc3)nn2)OC(OC(C)=O)[C@@H]1OC(C)=O (stereo partly drawn) [5-e, Furan glucosyl-1,2,3-triazole (5-e)]",22.1,69.5,67.7,56.9,64.9
"CO[C@H]1[C@@H](Cn2cc(-c3ccc(Cl)cc3)nn2)OC(OC(C)=O)[C@@H]1OC(C)=O (stereo partly drawn) [5-f, Furan glucosyl-1,2,3-triazole (5-f)]",27.6,71.5,68.2,60.5,56.1
"CC(=O)OC1O[C@H](Cn2cc(-c3ccc(F)cc3)nn2)[C@H](OCc2ccccc2)[C@H]1OC(C)=O (stereo partly drawn) [6-d, Furan glucosyl-1,2,3-triazole (6-d)]",26.7,58.6,57.1,50.2,64.7
"CC(=O)OC1O[C@H](Cn2cc(-c3ccc([N+](=O)[O-])cc3)nn2)[C@H](OCc2ccccc2)[C@H]1OC(C)=O (stereo partly drawn) [6-e, Furan glucosyl-1,2,3-triazole (6-e)]",27.4,59.3,50.3,48.9,56.3
N#Cc1c(Cl)c(Cl)c(Cl)c(C#N)c1Cl [Chlorothalonil],98,94.2,94.2,89.2,95.5
